From patent publication US20240189275A1, “METHODS FOR TREATING NON-ALCOHOLIC STEATOHEPATITIS WITH A SCD-1 INHIBITOR” (Lipidio Pharmaceuticals, Inc., priority 2021, published 2024)

Assays:
Format in all cases: in vivo, mice
[1] = Body weight and body composition (EchoMRI) in GAN diet-induced, biopsy-confirmed mouse model of NASH; conditions: 12 weeks
Method: (§1) The effects of topical treatment of Compound 25 to 10% of the skin for 12 weeks were assessed in a diet-induced and biopsy-confirmed mouse model of NASH described in the literature (World Journal of Gastroenterology (2019), 25(33), 4904-4920). In this model, NASH is induced by maintaining mice on a high fat-high fructose diet (the so-called GAN [Novel Gubra Amylin] diet) for 33 weeks prior to drug administration. […] This biopsy is then compared to a post-drug treatment biopsy to assess changes in NAFLD activity and Fibrosis Stage. Qualitative scoring is completed with quantitative immunohistochemistry to assess effects on hepatic steatosis, inflammation (Galectin-3), fibrosis (Collagen 1a1 and Picro-Sirius Red Staining) and stellate cell activation (α-SMA). RNASeq was also performed on terminal liver samples from mice treated with placebo gel and compound 25 gel to examine key candidate genes involved in extracellular matrix formation (ECM) and fibrogenesis. Parametric (ANOVA) and non-parametric (Fisher's or Chi Square) statistics were used to analyze the data as appropriate.
SCD-1 inhibitor compounds can be tested in vivo in a rodent diet-induced model of biopsy-confirmed NASH. In this experiment, the NASH phenotype is induced by maintaining mice upon a GAN diet for 33 weeks prior to drug administration (BMC Gastroenterology (2020), 20(1), 210; World Journal of Gastroenterology (2019), 25(33), 4904-4920). […] In addition to pre- and post-treatment histological analyses, metabolic assessments such as body weight, body composition, food intake and clinical chemistries are measured during and following the 12-week study dosing period. […]
Animals and Diet: The Danish Animal Experiments Inspectorate approved all experiments which were conducted using internationally accepted principles for the use of laboratory animals under the personal license #2013-15-2934-00784. […] Mice were weighed daily during the study and body composition was measured by non-invasive EchoMRI scanning using EchoMRI-900 (EchoMRI, Houston, TX).

[2] = tested on: diet-induced and biopsy-confirmed mouse model of NASH; test: Liver histology (NAS, fibrosis stage, quantitative histomorphometry) in GAN diet-induced, biopsy-confirmed mouse model of NASH; conditions: for number of mice with worsening (higher score) of Fibrosis Stage: placebo gel 7/16; for liver content (in mg) of α-SMA, antibody-stained sections / liver Galectin-3 content (in mg), antibody-stained sections / liver lipid content (hematoxylin and eosin-stained sections): week 12; for number of animals experiencing an improvement in NAS: topical, p<0.05 compared to placebo
Method: as §1
(§2) SCD-1 inhibitor compounds can be tested in vivo in a rodent diet-induced model of biopsy-confirmed NASH. In this experiment, the NASH phenotype is induced by maintaining mice upon a GAN diet for 33 weeks prior to drug administration (BMC Gastroenterology (2020), 20(1), 210; World Journal of Gastroenterology (2019), 25(33), 4904-4920). A biopsy is performed prior to drug treatment to eliminate any mice that have not developed the NASH phenotype and to mirror clinical trial design where liver biopsies prior to and at the end of treatment are compared. In addition to pre- and post-treatment histological analyses, metabolic assessments such as body weight, body composition, food intake and clinical chemistries are measured during and following the 12-week study dosing period.
(§3) Mice were dosed topically to 10% of the total BSA of the skin with either a placebo gel or a gel containing compound 25 (at a concentration of 0.05%, 0.25%, 0.75%, or 2.5%). (World Journal of Gastroenterology (2018), 24(2), 179-194).
(§4) Animals and Diet: The Danish Animal Experiments Inspectorate approved all experiments which were conducted using internationally accepted principles for the use of laboratory animals under the personal license #2013-15-2934-00784. B6.V-Lepob/JRj (ob/ob) mice (6 weeks old) were from Janvier Labs (Le Genest Saint Isle, France) and housed in a controlled environment (12h light/dark cycle, lights on at 3 AM, 21+2° C., humidity 50+10%). Each animal was identified by an implantable subcutaneous microchip (PetID Microchip, E-vet, Haderslev, Denmark). Mice had ad libitum access to tap water and the Gubra Amylin NASH diet [GAN diet; 40 kcal-% fat (of these 0% trans-fat and 46% saturated fatty acids by weight), 22% fructose, 10% sucrose, 2% cholesterol; D09100310, Research Diets]. Mice were maintained on the GAN diet for 33 weeks prior to study initiation to induce NASH and remained on the GAN diet during the 12 weeks of drug administration. Mice were weighed daily during the study and body composition was measured by non-invasive EchoMRI scanning using EchoMRI-900 (EchoMRI, Houston, TX).
Liver Biopsy: After 33 weeks of GAN diet feeding, mice were anesthetized with isoflurane (2%-3%, in 100% oxygen), a small abdominal incision in the midline was made, and the left lateral lobe of the liver was exposed. A cone-shaped wedge of liver tissue (50-100 mg) was excised from the distal part of the lobe. The cut surface of the liver was closed by electrosurgical bipolar coagulation using an electrosurgical unit (ERBE VIO® 100C, ERBE, Marietta, GA, United States). The liver was returned to the abdominal cavity, the abdominal wall was sutured and skin stapled. Carprofen (5 mg/kg, i.p.) was administered at the time of surgery and at post-operative day one and two. […]

[3] = tested on: diet-induced and biopsy-confirmed mouse model of NASH; test: Terminal hepatic triglyceride content in mouse model of NASH; conditions: 2.5% gel, week 12; p<0.001
Method: as §2, §3
Animals and Diet: The Danish Animal Experiments Inspectorate approved all experiments which were conducted using internationally accepted principles for the use of laboratory animals under the personal license #2013-15-2934-00784. […] Mice were weighed daily during the study and body composition was measured by non-invasive EchoMRI scanning using EchoMRI-900 (EchoMRI, Houston, TX). […]

[4] = tested on: liver genes involved in inflammation, fibrogenesis, extracellular matrix formation and NASH progression; test: RNASeq of terminal liver samples (mRNA expression) in mouse model of NASH
Method: as §1, §2, §3, §4

[5] = tested on: diet-induced and biopsy-confirmed mouse model of NASH; test: Plasma ALT and AST in mouse model of NASH; conditions: for plasma alanine transaminase (ALT) (units/L) / plasma aspartate transaminase (AST) (units/L): week 12
Method: as §2, §3, §4
Plasma Biochemistry Analysis: Blood samples are collected in heparinized tubes and plasma is separated and stored at −80° C. until analysis. Alanine aminotransferase and aspartate aminotransferase (FIG. 12) were measured using commercial kits (Roche Diagnostics) on the Cobas c 501 autoanalyzer according to the manufacturer's instructions.

[6] = 2.5% gel, topical to 10% of skin, p<0.001
[7] = 0.75% and 2.5% dose groups (group not specified), 16 animals per group, 12 weeks
[8] = conclusion, topical to 10% of BSA, dose not specified

In the case of `O=C(COc1ccc(CO)cc1)N1CC[C@H](Oc2ccccc2C(F)(F)F)C1` [Compound 25, (S)-2-(4-(hydroxymethyl)phenoxy)-1-(3-(2-(trifluoromethyl)phenoxy)pyrrolidin-1-yl)ethan-1-one], the “body adiposity (percent body weight)” value [1, 6] is reported as “significantly reduced”, the “body weight (percent baseline body weight)” value [1, 6] is reported as “significantly reduced” and the “total body weight or body fat” value ([1]; lower doses at which fibrosis changes were observed, topical) is reported as “no or minimal effect”. The “number of mice with worsening (higher score) of Fibrosis Stage” value (from here on “number of mice with worsening”) ([2]; 0.25% gel, 12 weeks) was 2/16, the “liver content (in mg) of α-SMA, antibody-stained sections” value (“liver content (in mg) of α-SMA” below) ([2]; 0.25% gel, p<0.05) was “significantly reduced” and the “proportion of mice exhibiting any worsening of the fibrosis stage” value ([2]; 0.25%, 0.75% and 2.5% gel groups, 12 weeks, placebo almost 50%) was 6-12%. The “animals showing a higher NAS score” value [2, 7] was “none”, the “animals with a lower NAS score” value [2, 7] was 15/16 and the “liver content of Collagen 1a1 (in mg), antibody-stained sections” value (“liver content of Collagen 1a1 (in mg)” below) ([2]; 0.75% gel, 12 weeks, p<0.05) was “significant reduction”. The “liver content of Picro-Sirius Red (in mg)” value ([2]; 0.75% gel, 12 weeks, p<0.05) was “significantly reduced”, the “number of mice with worsening” value ([2]; 0.75% gel, 12 weeks) was 2/16 and the “number of animals experiencing an improvement in NAS” value ([2]; 0.75% gel, 12 weeks) was “significantly greater”. The “liver content (in mg) of α-SMA” value ([2]; 0.75% gel, p<0.01) was “significantly reduced”, the “liver Galectin-3 content (in mg), antibody-stained sections” value ([2]; 0.75% gel, p<0.05) was “significantly reduced” and the “liver lipid content (hematoxylin and eosin-stained sections)” value ([2]; 0.75% gel, p<0.05) was “significantly reduced”. The “liver content of Picro-Sirius Red (in mg)” value ([2]; 2.5% gel, 12 weeks, p<0.001) was “significantly reduced”, the “liver content of Collagen 1a1 (in mg)” value ([2]; 2.5% gel, 12 weeks, p<0.01) was “significant reduction” and the “number of mice with worsening” value ([2]; 2.5% gel, 12 weeks) was 1/16. The “number of animals experiencing an improvement in NAS” value ([2]; 2.5% gel, 12 weeks) was “significantly greater”, the “liver Galectin-3 content (in mg), antibody-stained sections” value ([2]; 2.5% gel, p<0.001) was “significantly reduced” and the “liver content (in mg) of α-SMA” value ([2]; 2.5% gel, p<0.001) was “significantly reduced”. For the same molecule, the “liver lipid content (hematoxylin and eosin-stained sections)” value ([2]; 2.5% gel, p<0.001) was “significantly reduced”, the “liver content of Collagen 1a1 (in mg)” value ([2]; all doses (0.05%, 0.25%, 0.75%, 2.5% gel), 12 weeks) was “clear trend in reduction” and the “multiple quantitative markers of collagen (Collagen 1a1 immunohistochemistry; PSR staining; Collagen 1a1, 3a1, 4a1 mRNA)” value ([2]; conclusion, dose not specified) was “decreased”. The “α-SMA expression (stellate cell activation)” value ([2]; conclusion, dose not specified) was “decreased”, the fibrosis stage [2, 8] was “prevented worsening” and the hepatic steatosis [2, 8] was “improved”. For the same molecule, the inflammation [2, 8] was “decreased”, the “overall NAFLD Activity Score or NAS” value [2, 8] was “improved” and the liver triglyceride content [3] was “significantly reduced”. For the same molecule, the “liver Galectin-3 mRNA” value ([4]; 2.5% gel) was “Reduced”, the “liver mRNA expression of genes associated with NASH progression and poor prognosis” value ([4]; 2.5% gel, Aldh8a1, Aldh7a1, Annexin A2, CD36, CNBP, CIDEC, Cyclin D1, Fasn, Hsbp1, KIF6, Nfe212, Perilipin 2) was “significant regulation” and the “liver mRNA expression of genes involved in hepatic inflammation” value ([4]; 2.5% gel, Chemokine Ligand 2, Chemokine Ligand 5, Epithelial Cell Adhesion Protein, Cluster of Differentiation 68, Integrin X) was “significantly downregulated”. The “liver mRNA expression of genes involved in NASH fibrogenesis and extracellular matrix formation” value ([4]; 2.5% gel, Monocyte Chemoattractant Protein-1, Osteonectin, α-SMA, Collagen 1a1, Collagen 3a1, Collagen 4a1) was “significantly downregulated”, the “candidate genes whose expression may be predictive for poor outcomes like liver cirrhosis and cancer” value ([4]; conclusion, dose not specified) was “favorably regulated” and the “plasma alanine transaminase (ALT) (units/L)” value ([5]; 0.75% gel) was “reduction”. For the same molecule, the “plasma aspartate transaminase (AST) (units/L)” value ([5]; 0.75% gel) was “reduction”, the “plasma alanine transaminase (ALT) (units/L)” value ([5]; 2.5% gel) was “reduction” and the “plasma aspartate transaminase (AST) (units/L)” value ([5]; 2.5% gel) was “reduction”. For the same molecule, the “serum ALT and AST” value ([5]; conclusion, after topical dosing, dose not specified) was “marked decrease”.
